Experimental data taken from PubChem BioAssay (NCI).
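Each compound was tested at five concentrations against cells in 96-well plates for 48 hours. At the TGI there is no net growth.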

What was measured:
Test in all cases: DTP human tumour cell line panel, 48 h
786-0 renal = system: 786-0 renal
UACC-257 melanoma = system: UACC-257 melanoma
MALME-3M melanoma = system: MALME-3M melanoma
SR leukemia = system: SR leukemia
HCT-15 colon = system: HCT-15 colon
TK-10 renal = system: TK-10 renal
RPMI-8226 leukemia = system: RPMI-8226 leukemia
A549 NSCLC = system: A549 NSCLC
MOLT-4 leukemia = system: MOLT-4 leukemia
MDA-MB-231 breast = system: MDA-MB-231 breast
A498 renal = system: A498 renal

CCOC(=O)Cc1csc(/N=C\c2c(O)c3ccccc3oc2=O)n1
TGI (786-0 renal): > 100 µM
TGI (UACC-257 melanoma): 74.5 µM
TGI (MALME-3M melanoma): 24.3 µM
TGI (SR leukemia): 52 µM
TGI (HCT-15 colon): > 100 µM
TGI (TK-10 renal): > 100 µM
TGI (RPMI-8226 leukemia): 51.6 µM
TGI (A549 NSCLC): > 100 µM
TGI (MOLT-4 leukemia): 42.7 µM

COC(=O)C1Cc2c([nH]c3ccccc23)-c2[nH]c3ccccc3c2CC(NC(C)=O)C(=O)NCC(=O)N1 (configuration not stated)
TGI (786-0 renal): > 100 µM
TGI (UACC-257 melanoma): > 100 µM
TGI (MDA-MB-231 breast): > 100 µM
TGI (HCT-15 colon): > 100 µM
TGI (TK-10 renal): > 100 µM
TGI (RPMI-8226 leukemia): > 100 µM
TGI (A549 NSCLC): > 100 µM
TGI (MOLT-4 leukemia): > 100 µM

COc1ccc(N(C(=O)OC(C)(C)C)[C@@H]2C(C)=C[C@H]([S@@](=O)c3ccc(C)cc3)[C@@H]3C(=O)N(C)C(=O)[C@@H]32)cc1
TGI (786-0 renal): 37.9 µM
TGI (UACC-257 melanoma): 43.8 µM
TGI (MALME-3M melanoma): 71.8 µM
TGI (A498 renal): 29.3 µM
TGI (MDA-MB-231 breast): 46.4 µM
TGI (HCT-15 colon): > 100 µM
TGI (TK-10 renal): 43.4 µM
TGI (RPMI-8226 leukemia): 44.3 µM
TGI (A549 NSCLC): > 100 µM
TGI (MOLT-4 leukemia): 94.6 µM

CC(=O)NC1C(OCC(=O)NC(C)C(=O)NC(CCC(=O)NCCCCCNc2ccc([N+](=O)[O-])c3[nH]c4ccccc4c(=O)c23)C(N)=O)C(O)C(CO)OC1(C)OCc1ccccc1 (configuration not stated)
TGI (786-0 renal): > 50 µM
TGI (UACC-257 melanoma): > 50 µM
TGI (MALME-3M melanoma): 26.9 µM
TGI (A498 renal): > 50 µM
TGI (MDA-MB-231 breast): 31.4 µM
TGI (HCT-15 colon): > 50 µM
TGI (TK-10 renal): > 50 µM
TGI (RPMI-8226 leukemia): 36.6 µM
TGI (A549 NSCLC): > 50 µM
TGI (MOLT-4 leukemia): > 50 µM

CC(=O)OC1COC(N2C(=O)C(=O)c3cc(Br)c([N+](=O)[O-])cc32)C(OC(C)=O)C1OC(C)=O (configuration not stated)
TGI (786-0 renal): > 100 µM
TGI (UACC-257 melanoma): > 100 µM
TGI (MALME-3M melanoma): > 100 µM
TGI (SR leukemia): > 100 µM
TGI (HCT-15 colon): > 100 µM
TGI (TK-10 renal): > 100 µM
TGI (RPMI-8226 leukemia): > 100 µM
TGI (A549 NSCLC): > 100 µM
TGI (MOLT-4 leukemia): 88.5 µM

N#CC(C(=O)c1ccccc1F)c1nc2cc(C(F)(F)F)ccc2s1 (configuration not stated)
TGI (786-0 renal): 60.5 µM
TGI (UACC-257 melanoma): > 100 µM
TGI (MALME-3M melanoma): 69.3 µM
TGI (A498 renal): 45.8 µM
TGI (MDA-MB-231 breast): > 100 µM
TGI (HCT-15 colon): 56.7 µM
TGI (TK-10 renal): > 100 µM
TGI (RPMI-8226 leukemia): 85 µM
TGI (MOLT-4 leukemia): > 100 µM

Cc1cccc(Nc2cn(CCOc3ccccc3)c(=O)[nH]c2=O)c1
TGI (786-0 renal): > 100 µM
TGI (UACC-257 melanoma): > 100 µM
TGI (SR leukemia): > 100 µM
TGI (A498 renal): > 100 µM
TGI (HCT-15 colon): > 100 µM
TGI (RPMI-8226 leukemia): > 100 µM
TGI (A549 NSCLC): 61.9 µM
TGI (MOLT-4 leukemia): > 100 µM

N#Cc1nn(-c2ccc(Cl)cc2)c(N)c2c(=N)n3nc(-c4ccccc4)cc3nc12
TGI (786-0 renal): > 100 µM
TGI (UACC-257 melanoma): > 100 µM
TGI (SR leukemia): 10.7 µM
TGI (A498 renal): > 56.7 µM
TGI (HCT-15 colon): > 100 µM
TGI (TK-10 renal): > 100 µM
TGI (A549 NSCLC): > 42.1 µM
TGI (MOLT-4 leukemia): > 100 µM

CC(C)=NN/C(=N\S(=O)(=O)c1cc(Cl)c(Oc2ccc([N+](=O)[O-])cc2Cl)c(Cl)c1)Nc1ccc(Cl)cc1
TGI (786-0 renal): > 100 µM
TGI (UACC-257 melanoma): > 100 µM
TGI (MALME-3M melanoma): > 100 µM
TGI (MDA-MB-231 breast): > 100 µM
TGI (HCT-15 colon): > 100 µM
TGI (TK-10 renal): > 100 µM
TGI (RPMI-8226 leukemia): > 100 µM
TGI (A549 NSCLC): > 100 µM
TGI (MOLT-4 leukemia): > 100 µM

COc1cccc(-n2nnc3c(N)nc(N)nc32)c1
TGI (786-0 renal): > 100 µM
TGI (UACC-257 melanoma): > 100 µM
TGI (MALME-3M melanoma): > 100 µM
TGI (A498 renal): > 100 µM
TGI (MDA-MB-231 breast): > 100 µM
TGI (HCT-15 colon): > 100 µM
TGI (TK-10 renal): > 100 µM
TGI (RPMI-8226 leukemia): > 100 µM
TGI (A549 NSCLC): > 100 µM
TGI (MOLT-4 leukemia): > 100 µM

O=Cc1cc(O)c(O)c(O)c1-c1c(C=O)cc(O)c(O)c1O
TGI (786-0 renal): > 100 µM
TGI (UACC-257 melanoma): > 100 µM
TGI (MALME-3M melanoma): > 100 µM
TGI (SR leukemia): > 100 µM
TGI (A498 renal): > 100 µM
TGI (HCT-15 colon): > 100 µM
TGI (TK-10 renal): > 100 µM
TGI (RPMI-8226 leukemia): > 100 µM
TGI (A549 NSCLC): > 100 µM
TGI (MOLT-4 leukemia): > 100 µM

Brc1ccc(-c2ccc(-c3ccc(Br)s3)s2)s1
TGI (786-0 renal): > 100 µM
TGI (UACC-257 melanoma): > 100 µM
TGI (SR leukemia): > 100 µM
TGI (A498 renal): > 100 µM
TGI (HCT-15 colon): > 100 µM
TGI (TK-10 renal): > 100 µM
TGI (RPMI-8226 leukemia): > 100 µM
TGI (A549 NSCLC): > 100 µM
TGI (MOLT-4 leukemia): > 100 µM

O=C(/C=C1\N=C(c2ccccc2)N(c2ccc3c(c2)Sc2cc(N4C(=O)/C(=C/C(=O)/C=C/c5ccccc5)N=C4c4ccccc4)ccc2N3)C1=O)/C=C/c1ccccc1
TGI (786-0 renal): > 100 µM
TGI (UACC-257 melanoma): 83 µM
TGI (MALME-3M melanoma): 55.8 µM
TGI (A498 renal): 67.8 µM
TGI (MDA-MB-231 breast): 90 µM
TGI (HCT-15 colon): > 100 µM
TGI (TK-10 renal): > 100 µM
TGI (RPMI-8226 leukemia): > 100 µM
TGI (A549 NSCLC): > 100 µM
TGI (MOLT-4 leukemia): > 100 µM

Cc1cc2nc3c(C#N)c(-c4ccccc4)/c(=C\Nc4cccc(C(F)(F)F)c4)c(=O)n3c2cc1C
TGI (786-0 renal): > 100 µM
TGI (UACC-257 melanoma): > 100 µM
TGI (MALME-3M melanoma): > 100 µM
TGI (A498 renal): > 100 µM
TGI (MDA-MB-231 breast): > 100 µM
TGI (HCT-15 colon): > 100 µM
TGI (TK-10 renal): > 100 µM
TGI (RPMI-8226 leukemia): > 100 µM
TGI (A549 NSCLC): > 100 µM

N=C(/C=C/c1ccc(-c2cn3cc(/C=C/C(=N)N4CCOCC4)ccc3n2)cc1)N1CCOCC1
TGI (786-0 renal): > 100 µM
TGI (UACC-257 melanoma): > 100 µM
TGI (MALME-3M melanoma): > 100 µM
TGI (A498 renal): > 100 µM
TGI (MDA-MB-231 breast): > 100 µM
TGI (HCT-15 colon): > 100 µM
TGI (TK-10 renal): > 100 µM
TGI (RPMI-8226 leukemia): > 100 µM
TGI (A549 NSCLC): > 100 µM

OC(Cn1cncn1)(Cn1cncn1)c1ccc(Cl)cc1Cl
TGI (786-0 renal): > 100 µM
TGI (UACC-257 melanoma): > 100 µM
TGI (MALME-3M melanoma): > 100 µM
TGI (SR leukemia): > 100 µM
TGI (A498 renal): > 100 µM
TGI (HCT-15 colon): > 100 µM
TGI (TK-10 renal): > 100 µM
TGI (RPMI-8226 leukemia): > 100 µM
TGI (A549 NSCLC): > 100 µM
TGI (MOLT-4 leukemia): > 100 µM

NS(=O)(=O)c1ccc(CNC(=S)NC(=O)Nc2ccc(Cl)c(Cl)c2)cc1
TGI (786-0 renal): 34.3 µM
TGI (UACC-257 melanoma): > 100 µM
TGI (MALME-3M melanoma): 57.1 µM
TGI (A498 renal): 33.5 µM
TGI (MDA-MB-231 breast): 25.5 µM
TGI (HCT-15 colon): 31.8 µM
TGI (TK-10 renal): > 100 µM
TGI (RPMI-8226 leukemia): 41.6 µM
TGI (A549 NSCLC): 65.5 µM
TGI (MOLT-4 leukemia): 40.2 µM
